# From US9161935B2 (TEVA PHARMACEUTICAL INDUSTRIES, LTD., priority 2012, dated 2015)
# How the values were obtained:
# [1] = test system: Moderate to severe Crohn's disease (CD) subjects; experiment: Phase IIa trial CD-LAQ-201: safety/tolerability (adverse events); type: in vivo, human
# Source text: Safety/Tolerability • 1. Adverse events (AEs). • 2. Clinical laboratory values. • 3. Vital signs. • 4. ECG. • 5. Proportion of subjects who prematurely discontinue treatment. • 6. Proportion of subjects who prematurely discontinue treatment due to AEs. • 7. Time to premature treatment discontinuation. • 8. Time to premature treatment discontinuation due to AEs.
# [2] = test system: Moderate to Severe Crohn's Disease Patients; experiment: Phase III 52-week maintenance of remission study LAQ-CD-303 (Example 4); type: in vivo, human
# Procedure: A phase III, randomized, double-blind, placebo-controlled 52-week maintenance of remission study is conducted in active moderate to severe Crohn's disease patients.
# Subjects with a Response during the 8-week induction studies LAQ-CD-202, LAQ-CD-301, or LAQ-CD-302 are re-randomized into this placebo-controlled maintenance study. Response in those induction studies was defined as a Crohn's Disease Activity Index (CDAI) reduction of at least 70 points from Baseline and CDAI <220 at Week 8 of the induction study in the absence of treatment failure (TF); in particular, this included subjects in Remission. In those 3 induction studies, TF was defined as follows: any new medication/treatment (including surgery) for Crohn's disease (CD) or dose increase not allowed by the protocol, throughout the study period; any early termination from the study was also regarded as TF. No de novo subjects are included in this study.
# Remission: Subjects with CDAI <150 with no Treatment Failure (TF) during the course of the study.
# Steroid Free Remission: Subjects achieving both Remission and steroid free.
# IBDQ Response: An increase from baseline in total IBDQ score of ≧16 points.
# IBDQ Remission: A total IBDQ score of >170 points.
# Treatment duration is 52 weeks. Scheduled in-clinic visits are conducted at Baseline (Week 0), and at Weeks 2, 4, 8, 12, 16, 20, 28, 36, 44, and 52. The Week 0 visit for this maintenance study is the same as the Week 8 visit in the induction study. Unscheduled visits for safety or for any other reason may be conducted at any time during the study.
# Primary Efficacy Endpoint: • The primary endpoint is evaluated for subjects who belong to the PEC. • The proportion of subjects in Remission at Week 52.
# Secondary Efficacy Endpoints: • The secondary endpoints are evaluated for subjects who belong to the PEC. • The proportion of subjects in Sustained Remission (defined as Remission at Week 36 and Week 52). • The proportion of subjects with Steroid-free Remission at Week 52. • Mean change in total IBDQ score from Baseline to Week 52. • Proportion of subjects with an IBDQ Response at Week 52. • Proportion of subjects with IBDQ Remission at Week 52.
structure (smiles),measurement,setting,value
CCN(C(=O)c1c(O)c2c(Cl)cccc2n(C)c1=O)c1ccccc1 [laquinimod],dose response relationship for the overall incidence of AEs,[1]; 0.5-2.0 mg/day,no apparent dose response relationship
same,Common Adverse Events: Abdominal Distension,[1]; Laq 0.5 mg (N = 29),10.3%
same,Common Adverse Events: Abdominal Pain,[1]; Laq 0.5 mg (N = 29),17.2%
same,Common Adverse Events: Abdominal Pain Upper,[1]; Laq 0.5 mg (N = 29),3.4%
same,Common Adverse Events: Alanine Aminotransferase Increased,[1]; Laq 0.5 mg (N = 29),0%
same,Common Adverse Events: Asthenia,[1]; Laq 0.5 mg (N = 29),3.4%
same,Common Adverse Events: Back Pain,[1]; Laq 0.5 mg (N = 29),10.3%
same,Common Adverse Events: Cough,[1]; Laq 0.5 mg (N = 29),6.9%
same,Common Adverse Events: Crohn's Disease^a,[1]; Laq 0.5 mg (N = 29),6.9%
same,Common Adverse Events: Diarrhoea,[1]; Laq 0.5 mg (N = 29),20.7%
same,Common Adverse Events: Dizziness,[1]; Laq 0.5 mg (N = 29),3.4%
same,Common Adverse Events: Fatigue,[1]; Laq 0.5 mg (N = 29),6.9%
same,Common Adverse Events: Headache,[1]; Laq 0.5 mg (N = 29),24.1%
same,Common Adverse Events: Myalgia,[1]; Laq 0.5 mg (N = 29),0%
same,Common Adverse Events: Nausea,[1]; Laq 0.5 mg (N = 29),3.4%
same,Common Adverse Events: Pyrexia,[1]; Laq 0.5 mg (N = 29),24.1%
same,Common Adverse Events: Rectal Haemorrhage,[1]; Laq 0.5 mg (N = 29),0%
same,Common Adverse Events: Tachycardia,[1]; Laq 0.5 mg (N = 29),0%
same,Common Adverse Events: Vomiting,[1]; Laq 0.5 mg (N = 29),17.2%
same,Common Adverse Events: Abdominal Distension,[1]; Laq 1.0 mg (N = 30),0%
same,Common Adverse Events: Abdominal Pain,[1]; Laq 1.0 mg (N = 30),13.3%
same,Common Adverse Events: Abdominal Pain Upper,[1]; Laq 1.0 mg (N = 30),0%
same,Common Adverse Events: Alanine Aminotransferase Increased,[1]; Laq 1.0 mg (N = 30),10%
same,Common Adverse Events: Asthenia,[1]; Laq 1.0 mg (N = 30),6.7%
same,Common Adverse Events: Back Pain,[1]; Laq 1.0 mg (N = 30),10%
same,Common Adverse Events: Cough,[1]; Laq 1.0 mg (N = 30),10%
same,Common Adverse Events: Crohn's Disease^a,[1]; Laq 1.0 mg (N = 30),16.7%
same,Common Adverse Events: Diarrhoea,[1]; Laq 1.0 mg (N = 30),3.3%
same,Common Adverse Events: Dizziness,[1]; Laq 1.0 mg (N = 30),3.3%
same,Common Adverse Events: Fatigue,[1]; Laq 1.0 mg (N = 30),0%
same,Common Adverse Events: Headache,[1]; Laq 1.0 mg (N = 30),26.7%
same,Common Adverse Events: Myalgia,[1]; Laq 1.0 mg (N = 30),3.3%
same,Common Adverse Events: Nausea,[1]; Laq 1.0 mg (N = 30),20%
same,Common Adverse Events: Pyrexia,[1]; Laq 1.0 mg (N = 30),3.3%
same,Common Adverse Events: Rectal Haemorrhage,[1]; Laq 1.0 mg (N = 30),3.3%
same,Common Adverse Events: Tachycardia,[1]; Laq 1.0 mg (N = 30),0%
same,Common Adverse Events: Vomiting,[1]; Laq 1.0 mg (N = 30),20%
same,Common Adverse Events: Abdominal Distension,[1]; Laq 1.5 mg (N = 29),3.4%
same,Common Adverse Events: Abdominal Pain,[1]; Laq 1.5 mg (N = 29),24.1%
same,Common Adverse Events: Abdominal Pain Upper,[1]; Laq 1.5 mg (N = 29),6.9%
same,Common Adverse Events: Alanine Aminotransferase Increased,[1]; Laq 1.5 mg (N = 29),0%
same,Common Adverse Events: Asthenia,[1]; Laq 1.5 mg (N = 29),10.3%
same,Common Adverse Events: Back Pain,[1]; Laq 1.5 mg (N = 29),13.8%
same,Common Adverse Events: Cough,[1]; Laq 1.5 mg (N = 29),6.9%
same,Common Adverse Events: Crohn's Disease^a,[1]; Laq 1.5 mg (N = 29),17.2%
same,Common Adverse Events: Diarrhoea,[1]; Laq 1.5 mg (N = 29),0%
same,Common Adverse Events: Dizziness,[1]; Laq 1.5 mg (N = 29),10.3%
same,Common Adverse Events: Fatigue,[1]; Laq 1.5 mg (N = 29),10.3%
same,Common Adverse Events: Headache,[1]; Laq 1.5 mg (N = 29),24.1%
same,Common Adverse Events: Myalgia,[1]; Laq 1.5 mg (N = 29),0%
same,Common Adverse Events: Nausea,[1]; Laq 1.5 mg (N = 29),6.9%
same,Common Adverse Events: Pyrexia,[1]; Laq 1.5 mg (N = 29),20.7%
same,Common Adverse Events: Rectal Haemorrhage,[1]; Laq 1.5 mg (N = 29),10.3%
same,Common Adverse Events: Tachycardia,[1]; Laq 1.5 mg (N = 29),10.3%
same,Common Adverse Events: Vomiting,[1]; Laq 1.5 mg (N = 29),3.4%
same,Common Adverse Events: Abdominal Distension,[1]; Laq 2.0 mg (N = 29),3.4%
same,Common Adverse Events: Abdominal Pain,[1]; Laq 2.0 mg (N = 29),24.1%
same,Common Adverse Events: Abdominal Pain Upper,[1]; Laq 2.0 mg (N = 29),17.2%
same,Common Adverse Events: Alanine Aminotransferase Increased,[1]; Laq 2.0 mg (N = 29),3.4%
same,Common Adverse Events: Asthenia,[1]; Laq 2.0 mg (N = 29),6.9%
same,Common Adverse Events: Back Pain,[1]; Laq 2.0 mg (N = 29),3.4%
same,Common Adverse Events: Cough,[1]; Laq 2.0 mg (N = 29),3.4%
same,Common Adverse Events: Crohn's Disease^a,[1]; Laq 2.0 mg (N = 29),13.8%
same,Common Adverse Events: Diarrhoea,[1]; Laq 2.0 mg (N = 29),10.3%
same,Common Adverse Events: Dizziness,[1]; Laq 2.0 mg (N = 29),3.4%
same,Common Adverse Events: Fatigue,[1]; Laq 2.0 mg (N = 29),0%
same,Common Adverse Events: Headache,[1]; Laq 2.0 mg (N = 29),44.8%
same,Common Adverse Events: Myalgia,[1]; Laq 2.0 mg (N = 29),17.2%
same,Common Adverse Events: Nausea,[1]; Laq 2.0 mg (N = 29),20.7%
same,Common Adverse Events: Pyrexia,[1]; Laq 2.0 mg (N = 29),13.8%
same,Common Adverse Events: Rectal Haemorrhage,[1]; Laq 2.0 mg (N = 29),0%
same,Common Adverse Events: Tachycardia,[1]; Laq 2.0 mg (N = 29),3.4%
same,Common Adverse Events: Vomiting,[1]; Laq 2.0 mg (N = 29),20.7%
same,tolerability,[1]; active Crohns disease,well tolerated
same,change from Baseline in biochemical or hematological parameters,[1]; any of the dose groups,no consistent trends in change from Baseline
same,deaths during the study,[1]; in vivo,No subject died
same,severity of most AEs,[1]; in vivo,mild or moderate
same,changes in vital signs or ECGs,[1]; laquinimod dose groups,no clinically significant changes
same,"most common SAE: CD (exacerbation), % of patients","[1]; laquinimod groups, pooled placebo 1.6%",3.4-6.9%
same,overall incidence of AEs,"[1]; laquinimod groups, pooled placebo 82.5%",86.2-96.7%
same,improve and/or maintain IBDQ score by Week 52,[2]; 0.25 mg/day,effective
same,induce and/or maintain IBDQ Remission by Week 52,[2]; 0.25 mg/day,effective
same,induce and/or maintain IBDQ Response by Week 52,[2]; 0.25 mg/day,effective
same,induce and/or maintain Remission by Week 52,[2]; 0.25 mg/day,effective
same,induce and/or maintain steroid-free Remission by Week 52,[2]; 0.25 mg/day,effective
same,sustain Remission (Remission at Week 36 and Week 52),[2]; 0.25 mg/day,effective
same,improve and/or maintain IBDQ score by Week 52,[2]; 0.5 mg/day,effective
same,induce and/or maintain IBDQ Remission by Week 52,[2]; 0.5 mg/day,effective
same,induce and/or maintain IBDQ Response by Week 52,[2]; 0.5 mg/day,effective
same,induce and/or maintain Remission by Week 52,[2]; 0.5 mg/day,effective
same,induce and/or maintain steroid-free Remission by Week 52,[2]; 0.5 mg/day,effective
same,sustain Remission (Remission at Week 36 and Week 52),[2]; 0.5 mg/day,effective
